Measurements: PubChem BioAssay AID248 (DTP/NCI, 2004)
Where “and” joins values, the source holds several entries; their conditions need not be identical. Equal entries are not always repeated. Inconclusive results and toxic doses are left out. Rule as the data show it: active = T/C of 150% or more; inactive = T/C below 125%.

System: L1210 leukemia ip in BDF1 mice, survival T/C
Assay: NCI In Vivo Anticancer Drug Screen. Data for tumor model L1210 Leukemia (intraperitoneal) in B6D2F1 (BDF1) mice
Details: endpoint: mean survival time, higher = longer survival
Method in brief: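 Read-out is survival time, reported as the treated-group measurement over the vehicle-control measurement.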

[1] = dose: 100.0 mg/kg/injection, schedule: Q01DX001 (ip), vehicle: Klucel (hydroxypropylcellulose) (HPC)
[2] = dose: 100.0 mg/kg/injection, schedule: Q01DX009 (ip), vehicle: Klucel (hydroxypropylcellulose) (HPC)
[3] = dose: 200.0 mg/kg/injection, schedule: Q01DX001 (ip), vehicle: Klucel (hydroxypropylcellulose) (HPC)
[4] = dose: 200.0 mg/kg/injection, schedule: Q01DX009 (ip), vehicle: Klucel (hydroxypropylcellulose) (HPC)
[5] = dose: 400.0 mg/kg/injection, schedule: Q01DX001 (ip), vehicle: Klucel (hydroxypropylcellulose) (HPC)
[6] = dose: 100.0 mg/kg/injection, schedule: Q01DX009 (ip), vehicle: saline
[7] = dose: 200.0 mg/kg/injection, schedule: Q01DX009 (ip), vehicle: saline
[8] = dose: 400.0 mg/kg/injection, schedule: Q01DX009 (ip), vehicle: saline
[9] = dose: 100.0 mg/kg/injection, schedule: Q04DX003 (ip), vehicle: Klucel (hydroxypropylcellulose) (HPC)
[10] = dose: 200.0 mg/kg/injection, schedule: Q04DX003 (ip), vehicle: Klucel (hydroxypropylcellulose) (HPC)
[11] = dose: 400.0 mg/kg/injection, schedule: Q04DX003 (ip), vehicle: Klucel (hydroxypropylcellulose) (HPC)
[12] = dose: 100.0 mg/kg/injection, schedule: Q01DX009 (ip), vehicle: saline with Tween-80
[13] = dose: 200.0 mg/kg/injection, schedule: Q01DX009 (ip), vehicle: saline with Tween-80
[14] = dose: 400.0 mg/kg/injection, schedule: Q01DX009 (ip), vehicle: saline with Tween-80
[15] = dose: 100.0 mg/kg/injection, schedule: Q01DX001 (ip), vehicle: carboxymethylcellulose (CMC)
[16] = dose: 200.0 mg/kg/injection, schedule: Q01DX001 (ip), vehicle: carboxymethylcellulose (CMC)
[17] = dose: 100.0 mg/kg/injection, schedule: Q04DX002 (ip), vehicle: Klucel (hydroxypropylcellulose) (HPC)
[18] = dose: 100.0 mg/kg/injection, schedule: Q01DX001 (ip), vehicle: saline
[19] = dose: 200.0 mg/kg/injection, schedule: Q01DX001 (ip), vehicle: saline
[20] = dose: 100.0 mg/kg/injection, schedule: Q04DX003 (ip), vehicle: saline with Tween-80
[21] = dose: 200.0 mg/kg/injection, schedule: Q04DX003 (ip), vehicle: saline with Tween-80
[22] = dose: 400.0 mg/kg/injection, schedule: Q04DX003 (ip), vehicle: saline with Tween-80

Measured: T/C

O=C(NNC(=O)c1ccc(Br)cc1)c1ccc(Cl)cc1
inactive: [1] 100 % of control | [2] 91 % of control | [3] 92 % of control | [4] 93 % of control | [5] 92 % of control

CC(CC=O)CCCC(C)(C)O (stereo not given)
inactive: [6] 102 % of control | [7] 102 % of control | [8] 93 % of control

COc1ccc(C2=C(C)CC3c4cc(OC)c(OC)cc4CCN3C2)cc1OC (stereo not given)
inactive: dose: 52.0 mg/kg/injection, schedule: Q01DX001 (ip), vehicle: carboxymethylcellulose (CMC) 101 % of control | dose: 78.0 mg/kg/injection, schedule: Q01DX001 (ip), vehicle: carboxymethylcellulose (CMC) 104 % of control | dose: 177.0 mg/kg/injection, schedule: Q01DX001 (ip), vehicle: carboxymethylcellulose (CMC) 118 % of control

Fc1ccc(NC(=S)S)cc1
inactive: dose: 6.25 mg/kg/injection, schedule: Q04DX003 (ip), vehicle: saline with Tween-80 94 % of control | dose: 12.5 mg/kg/injection, schedule: Q04DX003 (ip), vehicle: saline with Tween-80 99 % of control | dose: 25.0 mg/kg/injection, schedule: Q04DX003 (ip), vehicle: saline with Tween-80 91 % of control

CC(C)=Cc1cc(C)ccc1OC(=O)c1ccc([N+](=O)[O-])cc1
inactive: [1] 102 % of control | [2] 97 % of control | [3] 91 % of control | [4] 101 % of control | [5] 103 % of control | dose: 400.0 mg/kg/injection, schedule: Q01DX009 (ip), vehicle: Klucel (hydroxypropylcellulose) (HPC) 104 % of control

CC(C)(C)OC(=O)N/N=C/c1ccc2c(c1)OCO2
inactive: [9] 95 % of control | [10] 97 % of control | [11] 97 % of control

OC(c1ccccc1)C(c1ccccc1)C1CO1 (stereo not given)
inactive: dose: 12.5 mg/kg/injection, schedule: Q01DX009 (ip), vehicle: DMSO 88 % of control | dose: 25.0 mg/kg/injection, schedule: Q01DX009 (ip), vehicle: DMSO 91 % of control | dose: 100.0 mg/kg/injection, schedule: Q04DX003 (ip), vehicle: other 103 % of control | dose: 200.0 mg/kg/injection, schedule: Q04DX003 (ip), vehicle: other 103 % of control | dose: 400.0 mg/kg/injection, schedule: Q04DX003 (ip), vehicle: other 94 % of control

COc1ccc(Cl)cc1NC(=O)Oc1ccc(Br)cc1Br
inactive: [12] 94 % of control | [13] 104 % of control | [14] 99 % of control

O=C(NCCCN1CC1)C(=O)Nc1ccccn1
inactive: [9] 102 % of control | [10] 86 % of control

c1cc[n+]2c(c1)CC[n+]1ccccc1CC2
inactive: dose: 50.0 mg/kg/injection, schedule: Q01DX001 (ip), vehicle: carboxymethylcellulose (CMC) 106 % of control | [15] 100 % of control | [16] 122 % of control | dose: 400.0 mg/kg/injection, schedule: Q01DX001 (ip), vehicle: carboxymethylcellulose (CMC) 106 % of control

CO/N=C/c1ccc([N+](=O)[O-])cc1
inactive: [1] 96 % of control | [3] 95 % of control | [5] 98 % of control

CCn1cnc2cc(N=Cc3ccc(N(CCCl)CCCl)cc3Cl)ccc21
inactive: [17] 117 % of control | dose: 200.0 mg/kg/injection, schedule: Q04DX002 (ip), vehicle: Klucel (hydroxypropylcellulose) (HPC) 102 % of control | dose: 400.0 mg/kg/injection, schedule: Q04DX002 (ip), vehicle: Klucel (hydroxypropylcellulose) (HPC) 98 % of control

CCC[CH2][Sn]([CH2]CCC)([CH2]CCC)[CH2]c1ccccc1
inactive: dose: 100.0 mg/kg/injection, schedule: Q04DX003 (ip), vehicle: saline 98 % of control | dose: 200.0 mg/kg/injection, schedule: Q04DX003 (ip), vehicle: saline 102 % of control | dose: 400.0 mg/kg/injection, schedule: Q04DX003 (ip), vehicle: saline 88 % of control

COc1cc(/C=N/NC(=O)c2cccnc2)cc(OC)c1OC
inactive: [6] 102 % of control | [7] 107 % of control | [8] 103 % of control

NC1CCCC[N-]1.NC1CCCC[N-]1.NC1CCCC[N-]1.[Cl][Cr]([Cl])[Cl] (stereo not given)
inactive: dose: 18.75 mg/kg/injection, schedule: Q04DX003 (ip), vehicle: saline 94 % of control | dose: 37.5 mg/kg/injection, schedule: Q04DX003 (ip), vehicle: saline 92 % of control | dose: 75.0 mg/kg/injection, schedule: Q04DX003 (ip), vehicle: saline 89 % of control

O=S(=O)(Nc1nccs1)c1ccc(Nc2ccnc3cc(Cl)ccc23)cc1
inactive: [18] 93 % of control | [19] 95 % of control | dose: 400.0 mg/kg/injection, schedule: Q01DX001 (ip), vehicle: saline 87 % of control

O=C1NCCS1
inactive: dose: 50.0 mg/kg/injection, schedule: Q01DX009 (ip), vehicle: saline 107 % of control | [12] 107 % of control | [6] 92 % of control | dose: 100.0 mg/kg/injection, schedule: Q04DX003 (ip), vehicle: saline sonified 102 % of control | [13] 107 % of control | [7] 115 % of control | dose: 200.0 mg/kg/injection, schedule: Q04DX003 (ip), vehicle: saline sonified 100 % of control | [14] 96 % of control | dose: 400.0 mg/kg/injection, schedule: Q04DX003 (ip), vehicle: saline sonified 106 % of control

CC(=O)OCC#CCOC(C)=O
inactive: dose: 50.0 mg/kg/injection, schedule: Q04DX003 (ip), vehicle: saline with Tween-80 100 % of control | [20] 97 % of control | [21] 97 % of control

Cc1ccc2c(c1)N(CCCN(C)C)c1ccccc1S2
inactive: dose: 12.5 mg/kg/injection, schedule: Q04DX003 (ip), vehicle: saline 102 % of control | dose: 25.0 mg/kg/injection, schedule: Q04DX003 (ip), vehicle: saline 116 % of control

O=C1Sc2ccccc2C1=O
inactive: [18] 94 % of control | [9] 91 % of control | [19] 103 % of control | [10] 94 % of control | [11] 102 % of control

CC1=NC2(CCCCC2)C[N+]1(Cc1ccccc1)Cc1ccccc1
inactive: [20] 94 % of control

CC(C)C(=O)NC1CCCCC1
inactive: dose: 25.0 mg/kg/injection, schedule: Q04DX002 (ip), vehicle: Klucel (hydroxypropylcellulose) (HPC) 111 % of control | dose: 50.0 mg/kg/injection, schedule: Q04DX002 (ip), vehicle: Klucel (hydroxypropylcellulose) (HPC) 111 % of control | [17] 101 % of control

N#CC(C#N)=CNc1ccc(S(N)(=O)=O)cc1
inactive: dose: 75.0 mg/kg/injection, schedule: Q01DX001 (ip), vehicle: saline 101 % of control | dose: 150.0 mg/kg/injection, schedule: Q01DX001 (ip), vehicle: saline 95 % of control | dose: 300.0 mg/kg/injection, schedule: Q01DX001 (ip), vehicle: saline 96 % of control

NC1CC(c2ccccc2)NC(c2ccccc2)C1 (stereo not given)
inactive: dose: 15.0 mg/kg/injection, schedule: Q01DX001 (ip), vehicle: carboxymethylcellulose (CMC) 100 % of control

NC(=O)NC1CCCCC1
inactive: [20] 87 % of control | [21] 97 % of control | [22] 92 % of control

CCCCC(CC)COP(OCC(CC)CCCC)OCC(CC)CCCC (stereo not given)
inactive: [20] 96 % of control | [21] 100 % of control | [22] 96 % of control

CCCCCCCCCCS
inactive: [15] 114 % of control | [16] 101 % of control

Cc1ccccc1C(O)c1cnc(C)n1Cc1ccccc1 (stereo not given)
inactive: dose: 50.0 mg/kg/injection, schedule: Q04DX002 (ip), vehicle: saline with Tween-80 105 % of control and 88 % of control | dose: 100.0 mg/kg/injection, schedule: Q01DX001 (ip), vehicle: saline with Tween-80 102 % of control | [12] 100 % of control and 87 % of control | [20] 92 % of control | dose: 200.0 mg/kg/injection, schedule: Q01DX001 (ip), vehicle: saline with Tween-80 90 % of control | [13] 103 % of control | [21] 92 % of control | dose: 400.0 mg/kg/injection, schedule: Q01DX001 (ip), vehicle: saline with Tween-80 93 % of control | [14] 102 % of control | [22] 97 % of control
